# Assay results: patent US20090227616A1, “INHIBITORS OF AKT ACTIVITY” (SMITHKLINE BEECHAM CORPORATION, a corporation, priority 2005, published 2009)
# What was measured:
# [1] = Solubility in 50 mM phosphate buffer at pH 7.4; type: physicochemical; conditions: aqueous buffer
# FL AKT2 = biological target: T1, FL AKT2 (Homo sapiens, UniProt P31751); test: Full-length AKT enzyme assay (substrate phosphorylation, SPA); type: biochemical; conditions: 4 uM ATP
# T1 construct: 0.025 um, FL AKT2
# [2] = test system: LNCaP (lymph node metastasis of prostate cancer); test: Methylene Blue Growth Inhibition Assay; type: cell-based; conditions: Homo sapiens, 72 h, 3 days
# Procedure: (§1) Tumor cell lines used in this assay were BT474 (human breast carcinoma) and LNCaP (lymph node metastasis of prostate cancer). HFF (normal human foreskin fibroblast) was also included. All cell lines were cultured in RPMI 1640 media (Invitrogen Corporation 22400-071) containing 10% Fetal Bovine Serum (FBS) at 37° C. in a humidified 5% CO2 incubator. Cells were harvested using trypsin/EDTA, counted using a hemacytometer and plated in 96-well tissue culture plates (Costar 35-3075), 100 uL per well, at the following densities: BT474 15,000 cells/well, LNCaP 5,000 cells/well and HFF 5,000 cells/well. 10 mM stocks of compounds in DMSO were serially diluted in DMSO through nine 3-fold dilutions in 96-well plates (Costar Corning 3363), and stored at −80C. The next day, compound dilutions were thawed and 4 uL of each transferred to 662 uL RPMI 1640+100 ug/mL gentamicin, resulting in twice the final required test concentrations. 100 uL of compounds diluted in RPMI 1640 were added to all cell lines. The final concentration of DMSO in all wells, including controls, was 0.3%. Cells were incubated at 37C, 5% CO2 for 3 days. Medium was removed by aspiration. Cell biomass was estimated by staining cells with 80 uL methylene blue (Sigma M9140, 0.5% in 50:50 ethanol:water), and incubating at room temperature for 1 hour. Stain was aspirated and the plates rinsed by immersion in water, then air-dried. Stain was released from cells by adding 100 uL of solubilizing solution (1% N-lauroyl sarcosine, sodium salt, Sigma L5125, in PBS) and incubating at room temperature for at least 30 minutes. Plates were shaken and the optical density at 620 nm was measured on a microplate reader. Percent inhibition of cell growth was calculated relative to vehicle-treated control wells. Concentration of compound that inhibits 50% of cell growth (IC50) was interpolated using non-linear regression (Levenberg-Marquadt) and the equation, y=Vmax*(1−(x̂n/K̂n+x̂n)))+Y2. [Ref: Mager, M. E. (1972) Data Analysis in Biochemistry and Biophysics. New York: Academic Press]
# [3] = test system: HFF (normal human foreskin fibroblast); test: Methylene Blue Growth Inhibition Assay; type: cell-based; conditions: 72 h, 3 days
# Procedure: as §1
# [4] = test system: BT474 (human breast carcinoma); test: Methylene Blue Growth Inhibition Assay; type: cell-based; conditions: BT-474, 72 h, BT474, 3 days
# Procedure: as §1
# FL AKT1 = biological target: T2, FL AKT1 (Homo sapiens, UniProt P31749); test: Full-length AKT enzyme assay (substrate phosphorylation, SPA); type: biochemical; conditions: 4 uM ATP
# T2 construct: Full-length human AKT1 gene was amplified by PCR; His tag (from vector pFastBacHTb; own knowledge that this vector adds an N-terminal 6xHis and TEV site) (N); made in house; host or cells: baculovirus; virus produced in Sf9, protein expressed in T. ni insect cells
# T2 sequence (P31749 whole entry): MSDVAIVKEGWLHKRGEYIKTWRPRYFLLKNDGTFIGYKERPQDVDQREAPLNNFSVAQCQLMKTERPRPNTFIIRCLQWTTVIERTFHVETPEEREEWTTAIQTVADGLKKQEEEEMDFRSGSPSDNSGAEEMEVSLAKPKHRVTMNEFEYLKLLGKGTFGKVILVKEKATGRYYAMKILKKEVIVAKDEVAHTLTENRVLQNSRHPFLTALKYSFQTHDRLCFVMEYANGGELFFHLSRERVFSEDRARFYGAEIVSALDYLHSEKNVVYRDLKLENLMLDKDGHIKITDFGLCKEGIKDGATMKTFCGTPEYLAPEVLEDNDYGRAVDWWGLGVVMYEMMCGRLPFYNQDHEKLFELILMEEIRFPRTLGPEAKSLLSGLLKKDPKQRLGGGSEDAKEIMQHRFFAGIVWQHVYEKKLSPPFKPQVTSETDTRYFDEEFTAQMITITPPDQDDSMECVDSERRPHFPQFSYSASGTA
# T1 sequence (P31751 whole entry): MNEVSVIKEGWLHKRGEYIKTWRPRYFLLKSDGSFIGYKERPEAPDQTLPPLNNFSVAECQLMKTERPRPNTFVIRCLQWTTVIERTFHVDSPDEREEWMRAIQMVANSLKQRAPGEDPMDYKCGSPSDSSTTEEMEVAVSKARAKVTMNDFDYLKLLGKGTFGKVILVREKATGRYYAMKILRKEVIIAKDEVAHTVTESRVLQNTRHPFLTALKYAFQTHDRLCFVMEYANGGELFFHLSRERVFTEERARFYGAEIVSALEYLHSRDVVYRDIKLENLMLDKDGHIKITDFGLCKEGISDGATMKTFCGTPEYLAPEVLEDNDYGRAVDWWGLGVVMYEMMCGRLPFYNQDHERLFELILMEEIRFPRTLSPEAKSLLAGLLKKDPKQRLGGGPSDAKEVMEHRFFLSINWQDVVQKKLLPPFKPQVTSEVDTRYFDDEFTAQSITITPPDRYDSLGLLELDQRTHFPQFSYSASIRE
SMILES,solubility [1],IC50 (FL AKT2),IC50 [2],IC50 [3],IC50 [4],IC50 (FL AKT1)
"CCn1c(-c2nonc2N)nc2c(C#CC(C)(C)O)ncc(OCCCN3CCCCC3)c21 [Example 1, 4-(2-(4-amino-1,2,5-oxadiazol-3-yl)-1-ethyl-7-{[3-(1-piperidinyl)propyl]oxy}-1H-imidazo[4,5-c]pyridin-4-yl)-2-methyl-3-butyn-2-ol]",35 µM,0.025 µM,0.096 µM,17.7 µM,0.496 µM,0.003 µM
"CCn1c(-c2nonc2N)nc2c(C#CC(C)(C)O)ncc(OCCCN3CCCC3)c21 [Example 2, 4-(2-(4-amino-1,2,5-oxadiazol-3-yl)-1-ethyl-7-{[3-(1-pyrrolidinyl)propyl]oxy}-1H-imidazo[4,5-c]pyridin-4-yl)-2-methyl-3-butyn-2-ol]",152 µM,0.016 µM,0.096 µM,> 15 µM,0.437 µM,0.002 µM
"CCn1c(-c2nonc2N)nc2c(C#CC(C)(C)O)ncc(OCC3(CN)CC3)c21 [Example 15, 4-[7-({[1-(aminomethyl)cyclopropyl]methyl}oxy)-2-(4-amino-1,2,5-oxadiazol-3-yl)-1-ethyl-1H-imidazo[4,5-c]pyridin-4-yl]-2-methyl-3-butyn-2-ol]",160 µM,–,0.11 µM,> 30 µM,0.093 µM,–
"CCCC(CCN)Oc1cnc(C#CC(C)(C)O)c2nc(-c3nonc3N)n(CC)c12 (stereo not drawn) [Example 16, 4-[7-{[1-(2-aminoethyl)butyl]oxy}-2-(4-amino-1,2,5-oxadiazol-3-yl)-1-ethyl-1H-imidazo[4,5-c]pyridin-4-yl]-2-methyl-3-butyn-2-ol]",179 µM,–,0.007 µM,1.08 µM,0.192 µM,–
"CCn1c(-c2nonc2N)nc2c(C#CC(C)(C)O)ncc(OC(CCN)C3CCCCC3)c21 (stereo not drawn) [Example 18, 4-[7-[(3-amino-1-cyclohexylpropyl)oxy]-2-(4-amino-1,2,5-oxadiazol-3-yl)-1-ethyl-1H-imidazo[4,5-c]pyridin-4-yl]-2-methyl-3-butyn-2-ol]",112 µM,–,0.061 µM,3.21 µM,0.051 µM,–
